Assay results reported in the NIST ThermoML archive (doi:10.1021/je200668a).
± gives the expanded uncertainty stated by the source.

Settings: Liquid, Pulse Transmission

O [water]
Settings	speed of sound [m/s]
267.88 K, 349500 kPa	1996.1 ± 3.2
267.89 K, 199900 kPa	1745.2 ± 2.6
273.01 K, 49300 kPa	1483.9 ± 2
273.02 K, 200500 kPa	1762.6 ± 2.6
273.03 K, 50300 kPa	1485.7 ± 2.5
273.05 K, 100 kPa	1399.3 ± 2
273.07 K, 49200 kPa	1484 ± 2
273.07 K, 499800 kPa	2214.4 ± 3.4
273.08 K, 200700 kPa	1763.5 ± 2.6
273.08 K, 300600 kPa	1930.8 ± 2.9
273.08 K, 399700 kPa	2080.1 ± 3.1
273.09 K, 100 kPa	1399.8 ± 2
273.09 K, 100000 kPa	1578.3 ± 2.3
273.09 K, 150200 kPa	1671.7 ± 2.5
273.09 K, 150400 kPa	1671.6 ± 2.5
273.09 K, 349400 kPa	2006.9 ± 3.2
273.1 K, 100 kPa	1398.7 ± 2
273.1 K, 100500 kPa	1579.6 ± 2.3
273.1 K, 250700 kPa	1849 ± 2.8
273.1 K, 350400 kPa	2009 ± 3.2
273.1 K, 450500 kPa	2150.3 ± 3.3
273.1 K, 500400 kPa	2215.2 ± 3.4
273.1 K, 550500 kPa	2281.3 ± 3.5
273.1 K, 602100 kPa	2345.3 ± 3.7
273.11 K, 200300 kPa	1762.7 ± 2.6
273.11 K, 250300 kPa	1848.4 ± 2.8
273.11 K, 250600 kPa	1848.7 ± 2.8
273.11 K, 299900 kPa	1929.5 ± 2.9
273.11 K, 550200 kPa	2281.4 ± 3.5
273.12 K, 300000 kPa	1929.7 ± 2.9
273.12 K, 399600 kPa	2079.5 ± 3.1
273.12 K, 401000 kPa	2081.2 ± 3.1
273.12 K, 449300 kPa	2149.5 ± 3.3
273.12 K, 450200 kPa	2149.8 ± 3.3
273.12 K, 550300 kPa	2276.8 ± 3.5
273.12 K, 599500 kPa	2342 ± 3.7
273.13 K, 150200 kPa	1672.1 ± 2.5
273.13 K, 349700 kPa	2007 ± 3.1
273.13 K, 499900 kPa	2214.6 ± 3.4
273.18 K, 99800 kPa	1577.5 ± 2.3
278.05 K, 100 kPa	1425.1 ± 2
278.05 K, 500300 kPa	2220.9 ± 3.4
278.07 K, 349300 kPa	2013.6 ± 3
278.08 K, 200300 kPa	1775.7 ± 2.6
278.08 K, 349600 kPa	2014.7 ± 3
278.08 K, 400000 kPa	2086.4 ± 3.1
278.08 K, 450900 kPa	2156.9 ± 3.3
278.08 K, 602100 kPa	2346.8 ± 3.7
278.09 K, 49200 kPa	1507.3 ± 2
278.09 K, 400000 kPa	2087.5 ± 3.1
278.09 K, 449700 kPa	2155.5 ± 3.4
278.09 K, 500500 kPa	2221.3 ± 3.4
278.09 K, 550800 kPa	2286.8 ± 3.6
278.09 K, 700200 kPa	2439.8 ± 4.9
278.1 K, 299900 kPa	1938.9 ± 2.9
278.1 K, 400500 kPa	2089.8 ± 3.2
278.1 K, 500400 kPa	2223.3 ± 3.4
278.11 K, 561500 kPa	2297.2 ± 3.6
278.11 K, 640200 kPa	2390.8 ± 3.8
278.12 K, 200800 kPa	1777.1 ± 2.6
278.12 K, 250200 kPa	1858.4 ± 2.8
278.12 K, 299900 kPa	1939.6 ± 2.9
278.12 K, 450800 kPa	2157.8 ± 3.4
278.12 K, 600700 kPa	2347.6 ± 3.7
278.12 K, 650000 kPa	2402.2 ± 3.8
278.13 K, 48300 kPa	1506 ± 2
278.13 K, 150100 kPa	1688.3 ± 2.4
278.13 K, 200100 kPa	1776.7 ± 2.6
278.13 K, 250100 kPa	1859.7 ± 2.8
278.13 K, 250600 kPa	1859.7 ± 2.8
278.13 K, 550600 kPa	2284.7 ± 3.5
278.14 K, 150100 kPa	1689.2 ± 2.4
278.15 K, 100 kPa	1424.8 ± 2
278.15 K, 99600 kPa	1597.6 ± 2.3
278.16 K, 99900 kPa	1599.9 ± 2.3
278.16 K, 300500 kPa	1940 ± 2.9
278.17 K, 349800 kPa	2017.6 ± 3
278.17 K, 599300 kPa	2344.6 ± 3.7
278.17 K, 651900 kPa	2402.7 ± 3.8
278.17 K, 701300 kPa	2451 ± 4.9
278.19 K, 109200 kPa	1614.9 ± 2.3
278.19 K, 159900 kPa	1705.3 ± 2.4
278.19 K, 700600 kPa	2446.5 ± 3.9
278.24 K, 100 kPa	1425.6 ± 2
288 K, 450300 kPa	2162.1 ± 3.3
288.07 K, 300700 kPa	1953.9 ± 2.9
288.07 K, 600900 kPa	2346.8 ± 3.7
288.08 K, 100 kPa	1463.4 ± 1.9
288.08 K, 50800 kPa	1549.6 ± 2
288.08 K, 149800 kPa	1717.5 ± 2.4
288.08 K, 250500 kPa	1878.9 ± 2.8
288.08 K, 350800 kPa	2026.4 ± 3
288.08 K, 400300 kPa	2094.6 ± 3.3
288.08 K, 699800 kPa	2453.6 ± 4
288.09 K, 50900 kPa	1549.8 ± 2
288.09 K, 110900 kPa	1650.2 ± 2.3
288.09 K, 160100 kPa	1733.4 ± 2.5
288.09 K, 349600 kPa	2026.1 ± 3
288.09 K, 599500 kPa	2345.8 ± 3.7
288.1 K, 499500 kPa	2226.5 ± 3.4
288.1 K, 499700 kPa	2225.7 ± 3.4
288.11 K, 100 kPa	1461.4 ± 2
288.11 K, 200800 kPa	1799.7 ± 2.6
288.11 K, 299800 kPa	1952.9 ± 2.9
288.11 K, 599900 kPa	2344.8 ± 3.7
288.11 K, 700800 kPa	2455.2 ± 4.1
288.12 K, 200300 kPa	1800.1 ± 2.6
288.12 K, 250000 kPa	1878.5 ± 2.7
288.12 K, 399800 kPa	2094.8 ± 3.3
288.13 K, 100 kPa	1462.4 ± 2
